Results published in ChEMBL document CHEMBL1221226 (Nat Chem Biol, 2009).
Positions of bridges follow the written chain, without caps; N, C: chain ends. Residues, ends and D or L forms follow the SMILES beside them. *: point of attachment. X1 = CC(CN[C@@H](Cc1cnc[nH]1)C(=O)O)C(=O)*

How the values were obtained:
[1] = target: Glucagon receptor (Homo sapiens, UniProt P47871); assay: Agonist activity at GCGR expressed in HEK293 cells assessed as stimulation of cAMP production by luciferase reporter gene assay; format: functional, cell-based
[2] = target: Glucagon-like peptide 1 receptor (Homo sapiens, UniProt P43220); assay: Agonist activity at GLP1R expressed in HEK293 cells assessed as stimulation of cAMP production by luciferase reporter gene assay; format: functional, cell-based
Sequence of Glucagon-like peptide 1 receptor (P43220 whole entry): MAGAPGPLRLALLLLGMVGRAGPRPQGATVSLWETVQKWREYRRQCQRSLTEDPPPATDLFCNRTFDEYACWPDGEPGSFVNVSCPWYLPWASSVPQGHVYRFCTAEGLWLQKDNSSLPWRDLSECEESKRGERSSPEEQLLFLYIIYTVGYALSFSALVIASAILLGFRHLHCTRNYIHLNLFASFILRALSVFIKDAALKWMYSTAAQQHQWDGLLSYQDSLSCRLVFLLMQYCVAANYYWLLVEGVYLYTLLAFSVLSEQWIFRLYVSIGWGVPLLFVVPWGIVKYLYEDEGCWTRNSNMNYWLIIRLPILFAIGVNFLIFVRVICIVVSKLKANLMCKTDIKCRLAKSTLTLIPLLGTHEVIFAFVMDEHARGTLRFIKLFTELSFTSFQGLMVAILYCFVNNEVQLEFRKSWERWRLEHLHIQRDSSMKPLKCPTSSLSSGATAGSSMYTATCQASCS

Sequence of Glucagon receptor (P47871 whole entry): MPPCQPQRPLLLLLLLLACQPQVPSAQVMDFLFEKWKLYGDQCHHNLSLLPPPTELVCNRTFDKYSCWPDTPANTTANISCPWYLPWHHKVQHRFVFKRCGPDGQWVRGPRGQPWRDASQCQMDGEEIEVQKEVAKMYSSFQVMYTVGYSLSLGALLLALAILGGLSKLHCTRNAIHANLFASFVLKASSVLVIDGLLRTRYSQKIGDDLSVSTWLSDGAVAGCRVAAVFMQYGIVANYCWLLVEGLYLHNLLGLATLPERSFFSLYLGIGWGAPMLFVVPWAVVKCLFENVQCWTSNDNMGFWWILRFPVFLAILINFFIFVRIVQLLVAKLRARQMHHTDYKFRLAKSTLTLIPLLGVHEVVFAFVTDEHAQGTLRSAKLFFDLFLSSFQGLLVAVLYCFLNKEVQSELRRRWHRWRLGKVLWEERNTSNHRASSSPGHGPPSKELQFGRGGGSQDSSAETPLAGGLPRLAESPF

| EC50 [1] | EC50 [2] | EC50 ([1]; hek293) | EC50 ([2]; hek293) | Structure (SMILES) |
| --- | --- | --- | --- | --- |
| 0.068 nM | 0.57 nM | – | – | CSCC[C@H](NC(=O)[C@H](CC(C)C)NC(=O)[C@H](Cc1c[nH]c2ccccc12)NC(=O)[C@H](CCC(N)=O)NC(=O)[C@@H](NC(=O)[C@H](Cc1ccccc1)NC(=O)[C@H](CC(=O)O)NC(=O)[C@H](CCC(N)=O)NC(=O)[C@H](C)NC(=O)[C@H](CCCNC(=N)N)NC(=O)[C@H](CCCNC(=N)N)NC(=O)[C@H](CC(=O)O)NC(=O)[C@H](CC(=O)O)NC(=O)[C@H](CC(C)C)NC(=O)[C@H](Cc1ccc(O)cc1)NC(=O)[C@H](CCCCN)NC(=O)[C@H](CO)NC(=O)[C@H](Cc1ccc(O)cc1)NC(=O)[C@H](CC(=O)O)NC(=O)[C@H](CO)NC(=O)[C@@H](NC(=O)[C@H](Cc1ccccc1)NC(=O)[C@@H](NC(=O)CNC(=O)[C@H](CCC(N)=O)NC(=O)[C@H](CO)N[C@@H](Cc1cnc[nH]1)C(=O)O)[C@@H](C)O)[C@@H](C)O)C(C)C)C(=O)N[C@@H](CC(N)=O)C(=O)N[C@H](C(N)=O)[C@@H](C)O |
| 0.1 nM | 0.12 nM | – | – | CSCC[C@H](NC(=O)[C@H](CC(C)C)NC(=O)[C@H](Cc1c[nH]c2ccccc12)NC(=O)[C@H](CCC(N)=O)NC(=O)[C@@H](NC(=O)[C@H](Cc1ccccc1)NC(=O)[C@H](CC(=O)O)NC(=O)[C@H](CCC(N)=O)NC(=O)[C@H](C)NC(=O)[C@H](CCCNC(=N)N)NC(=O)[C@H](CCCNC(=N)N)NC(=O)[C@H](CCS(=O)(=O)O)NC(=O)[C@H](CC(=O)O)NC(=O)[C@H](CC(C)C)NC(=O)[C@H](Cc1ccc(O)cc1)NC(=O)[C@H](CCCCN)NC(=O)[C@H](CO)NC(=O)[C@H](Cc1ccc(O)cc1)NC(=O)[C@H](CC(=O)O)NC(=O)[C@H](CO)NC(=O)[C@@H](NC(=O)[C@H](Cc1ccccc1)NC(=O)[C@@H](NC(=O)CNC(=O)[C@H](CCC(N)=O)NC(=O)[C@H](CO)N[C@@H](Cc1cnc[nH]1)C(=O)O)[C@@H](C)O)[C@@H](C)O)C(C)C)C(=O)N[C@@H](CC(N)=O)C(=O)N[C@H](C(N)=O)[C@@H](C)O |
| 0.054 nM | 0.13 nM | – | – | CSCC[C@H](NC(=O)[C@H](CC(C)C)NC(=O)[C@H](Cc1c[nH]c2ccccc12)NC(=O)[C@H](CCC(N)=O)NC(=O)[C@@H](NC(=O)[C@H](Cc1ccccc1)NC(=O)[C@H](CC(=O)O)NC(=O)[C@H](CCC(N)=O)NC(=O)[C@H](C)NC(=O)[C@H](CCCNC(=N)N)NC(=O)[C@H](CCCNC(=N)N)NC(=O)C[C@H](CCC(=O)O)NC(=O)[C@H](CC(=O)O)NC(=O)[C@H](CC(C)C)NC(=O)[C@H](Cc1ccc(O)cc1)NC(=O)[C@H](CCCCN)NC(=O)[C@H](CO)NC(=O)[C@H](Cc1ccc(O)cc1)NC(=O)[C@H](CC(=O)O)NC(=O)[C@H](CO)NC(=O)[C@@H](NC(=O)[C@H](Cc1ccccc1)NC(=O)[C@@H](NC(=O)CNC(=O)[C@H](CCC(N)=O)NC(=O)[C@H](CO)N[C@@H](Cc1cnc[nH]1)C(=O)O)[C@@H](C)O)[C@@H](C)O)C(C)C)C(=O)N[C@@H](CC(N)=O)C(=O)N[C@H](C(N)=O)[C@@H](C)O |

Further lines, the molecule ahead of its results:

| Structure (SMILES) | EC50 [1] | EC50 [2] | EC50 ([1]; hek293) | EC50 ([2]; hek293) |
| --- | --- | --- | --- | --- |
| CSCC[C@@H]1NC(=O)[C@H](CC(C)C)NC(=O)[C@H](Cc2c[nH]c3ccccc23)NC(=O)[C@@H](NC(=O)[C@@H](NC(=O)[C@H](Cc2ccccc2)NC(=O)[C@H](CC(=O)O)NC(=O)[C@H](CCC(N)=O)NC(=O)[C@H](C)NC(=O)[C@H](CCCN=C(N)N)NC(=O)[C@H](CCCN=C(N)N)NC(=O)[C@H](CO)NC(=O)[C@H](CC(=O)O)NC(=O)[C@H](CC(C)C)NC(=O)[C@H](Cc2ccc(O)cc2)NC(=O)[C@H](CCCCN)NC(=O)[C@H](CO)NC(=O)[C@H](Cc2ccc(O)cc2)NC(=O)[C@H](CC(=O)O)NC(=O)[C@H](CO)NC(=O)[C@@H](NC(=O)[C@H](Cc2ccccc2)NC(=O)[C@@H](NC(=O)CNC(=O)[C@H](CCC(N)=O)NC(=O)[C@H](CO)N[C@@H](Cc2cnc[nH]2)C(=O)O)[C@@H](C)O)[C@@H](C)O)C(C)C)CCC(=O)NCCCC[C@@H](C(=O)N[C@H](C(=O)O)[C@@H](C)O)NC1=O | 0.076 nM | 0.18 nM | – | – |
| CC[C@H](C)[C@H](NC(=O)[C@H](Cc1ccccc1)NC(=O)[C@H](CCC(=O)O)NC(=O)[C@@H]1CCCCNC(=O)CC[C@H](NC(=O)[C@H](CC(=O)O)NC(=O)[C@H](CC(C)C)NC(=O)[C@H](Cc2ccc(O)cc2)NC(=O)[C@H](CCCCN)NC(=O)[C@H](CO)NC(=O)[C@H](Cc2ccc(O)cc2)NC(=O)[C@H](CC(=O)O)NC(=O)[C@H](CO)NC(=O)[C@@H](NC(=O)[C@H](Cc2ccccc2)NC(=O)[C@@H](NC(=O)CNC(=O)[C@H](CCC(N)=O)NC(=O)C(C)CN[C@@H](Cc2cnc[nH]2)C(=O)O)[C@@H](C)O)[C@@H](C)O)C(=O)N[C@@H](CCC(N)=O)C(=O)N[C@@H](C)C(=O)N[C@@H](C)C(=O)N1)C(=O)N[C@@H](C)C(=O)N[C@@H](Cc1c[nH]c2ccccc12)C(=O)N[C@@H](CC(C)C)C(=O)N[C@@H](CCSC)C(=O)N[C@@H](CC(N)=O)C(=O)N[C@H](C(=O)O)[C@@H](C)O (some centres undefined) (X1-QGTFTSDYSKYLDEQAAKEFIAWLMNT-OH; lactam 14-18) | 0.055 nM | 0.013 nM | – | – |
| CC[C@H](C)[C@H](NC(=O)[C@H](Cc1ccccc1)NC(=O)[C@H](CCC(=O)O)NC(=O)[C@H](CCCCN)NC(=O)[C@H](C)NC(=O)[C@H](C)NC(=O)[C@H](CCC(N)=O)NC(=O)[C@H](CCC(=O)O)NC(=O)[C@H](CC(=O)O)NC(=O)[C@H](CC(C)C)NC(=O)[C@H](Cc1ccc(O)cc1)NC(=O)[C@H](CCCCN)NC(=O)[C@H](CO)NC(=O)[C@H](Cc1ccc(O)cc1)NC(=O)[C@H](CC(=O)O)NC(=O)[C@H](CO)NC(=O)[C@@H](NC(=O)[C@H](Cc1ccccc1)NC(=O)[C@@H](NC(=O)CNC(=O)[C@H](CCC(N)=O)NC(=O)[C@H](CO)NC(=O)[C@@H](N)Cc1cnc[nH]1)[C@@H](C)O)[C@@H](C)O)C(=O)N[C@@H](C)C(=O)N[C@@H](Cc1c[nH]c2ccccc12)C(=O)N[C@@H](CC(C)C)C(=O)N[C@H](C(=O)N[C@@H](CCCCN)C(=O)NCC(=O)O)C(C)C (H-HSQGTFTSDYSKYLDEQAAKEFIAWLVKG-OH) | – | – | 0.47 nM | 0.015 nM |
| CSCC[C@H](NC(=O)[C@H](CC(C)C)NC(=O)[C@H](Cc1c[nH]c2ccccc12)NC(=O)[C@H](CCC(N)=O)NC(=O)[C@@H](NC(=O)[C@H](Cc1ccccc1)NC(=O)[C@H](CC(=O)O)NC(=O)[C@H](CCCCN)NC(=O)[C@H](C)NC(=O)[C@H](CCCN=C(N)N)NC(=O)[C@H](CCCN=C(N)N)NC(=O)[C@H](CCC(=O)O)NC(=O)[C@H](CC(=O)O)NC(=O)[C@H](CC(C)C)NC(=O)[C@H](Cc1ccc(O)cc1)NC(=O)[C@H](CCCCN)NC(=O)[C@H](CO)NC(=O)[C@H](Cc1ccc(O)cc1)NC(=O)[C@H](CC(=O)O)NC(=O)[C@H](CO)NC(=O)[C@@H](NC(=O)[C@H](Cc1ccccc1)NC(=O)[C@@H](NC(=O)CNC(=O)[C@H](CCC(N)=O)NC(=O)[C@H](CO)N[C@@H](Cc1cnc[nH]1)C(=O)O)[C@@H](C)O)[C@@H](C)O)C(C)C)C(=O)N[C@@H](CC(N)=O)C(=O)N[C@H](C(N)=O)[C@@H](C)O | 0.077 nM | 0.071 nM | – | – |
